Data on 75 compounds can be found in the SangsterLogP compilation.

Series [1] can be described thus: method code SF, from DOI: 10.2307/3575246, PMID: 7367588.
The nature of series [2]: method code SF, from DOI: 10.1016/0165-1218(78)90089-7, PMID: 362190.
Series [3] in a line: method code SF-AS, from DOI: 10.1248/cpb.26.2824.
The nature of series [4]: method code SF-AS, from DOI: 10.1016/j.bmc.2008.07.057, PMID: 18706818. The settings on record: pH 7.4.
A short description of series [5]: method code SF-TN, from DOI: 10.2116/analsci.13.897. As to conditions: pH 2.0.
The conditions of series [6]: pH 7.3.
The nature of series [7]: method code SF-AS, from DOI: 10.1248/cpb.35.377.
Series [8] can be described thus: method code SF-AS, from DOI: 10.1016/0378-5173(80)90117-9.
Series [9] can be described thus: method code SF-AS, from DOI: 10.1016/s0021-9673(01)89384-5.
Experiment in series [10]: not given
This is another data set of the same source.

Experiment in series [11]: not given
This is another data set of the same source.

Experiment in series [12]: not given
This is another data set of the same source.

Series [13] can be described thus: method code SF-HPLC, from DOI: 10.1016/0378-5173(84)90193-5. As to conditions: pH 4.0.
Series [14] can be described thus: method code SF-AS, from DOI: 10.1111/j.1440-1681.1976.tb00621.x, PMID: 10116.
Experiment in series [15]: not given
The source holds these as a separate data set.

Series [16] can be described thus: method code SF-HPLC, from DOI: 10.1016/j.microc.2003.08.005.
Experiment in series [17]: not given
The source holds these as a separate data set.

Experiment in series [18]: not given
The source holds these as a separate data set.

The nature of series [19]: method code SF-AS, from DOI: 10.1016/0731-7085(96)01773-6, PMID: 8877846.
A short description of series [20]: method code SF-AS, from DOI: 10.1016/0009-2797(77)90097-7, PMID: 407012. The settings on record: pH 7.0.
Series [21] can be described thus: from KURIHARA, Norio.; Fujita, Toshio. (1983). Composition of Partition Coefficients of Polychlorinated Hydrocarbons (Commemoration Issue Dedicated to Professor Yuzo Inouye on the Occasion of his ….
A short description of series [22]: method code SF, from Dai, J-Y.; Han, S.; Wang, L. (2000). Prediction of partition properties of substituted benzaldehydes using different structural parameters. Zhongguo Huanjing Kexue (China Environmental Science), ….
Series [23] is described as follows: method code SF-GLC, from DOI: 10.1016/s0003-2670(00)84505-5.
Series [24] is described as follows: method code SF-HPLC, from DOI: 10.1002/etc.5620110812.
A short description of series [25]: method code SF-AS, from DOI: 10.1021/jm00299a013, PMID: 5458368.
Series [26] can be described thus: method code SF, from Brown, J.; Yu, N.; Cory, M.; Bicknell, R.; Taylor, D. (1978). In vivo evaluation of the radiosensitizing and cytotoxic properties of newly synthesized electron-affinic drugs. 3, 206-211.
Experiment in series [27]: not given
The source holds these as a separate data set.

Series [28] can be described thus: method code SF, from DOI: 10.1016/s0928-0987(00)00099-3, PMID: 10915965. As to conditions: pH 5.0.
A short description of series [29]: method code SF-AS, from DOI: 10.1248/cpb.17.2558.
Experiment in series [30]: not given
This is another data set of the same source.

A short description of series [31]: method code SF-GLC, from DOI: 10.1021/je00020a050.
The nature of series [32]: method code SF-GLC, from DOI: 10.1002/jps.2600600712, PMID: 4398902.
A short description of series [33]: method code SF, from DOI: 10.1016/j.tca.2004.05.019.
Experiment in series [34]: not given
This is another data set of the same source.

Experiment in series [35]: not given
This is another data set of the same source.

Series [36] can be described thus: method code SF, from Huang, Q.; Wang, L.; Han, S.; Wang, G.; Gao, H. (1993). Quantitative relation between molecular structures and the hydrophobic parameters of halogenated arenes. Chemical Journal of Chinese ….
A short description of series [37]: method code SF-AS, from DOI: 10.1016/0378-5173(93)90388-v.

In general, logP refers to the decadic logarithm of the partition coefficient of the neutral form, usually between octanol and water. In [1], `O=C(Cn1ccnc1[N+](=O)[O-])NCC(O)CO` (stereo not given) gave a logP of -1.85. As to `O=[N+]([O-])c1nccn1CC(O)CCl` (stereo not given), the logP in series [2] amounted to 0.15. `Cc1ccccc1C(=O)O` had a logP in [3] of 2.18. As usually defined, the logD is lipophilicity at a set pH, counting ionised and neutral species. A higher logD goes with a more lipophilic compound. `CCC1(C(N)=O)CCC=[N+]1[O-]` (stereo not given): the logD in [4] is -1.25. The compound `O=C(O)C1CC=CCC1` (stereo not given) gave a logD in series [5] of 1.69. As to `O=c1cc(CO)occ1O`, the logD in series [6] is -0.64. `OCc1cc(Cl)cc(Cl)c1` yielded a logP in series [7] of 2.9. On the same count and under the same terms, under `Oc1ccc2ccccc2c1` stands 2.75. Turning to `CCCC(CO)N1C=NC2C(N)=NC=NC21` (stereo not given), the logP was determined as 0.66. Take `CCCCc1ccc(O)cc1`: in series [8], the log partition coefficient (logP) was found to be 3.65. On to `Cc1ccc(C)o1`, for which, in [9], the logP turned out to be 2.24.

In series [10], `Cc1cccc(C)n1` returned a logP of 1.63. On to `Oc1cccc(F)c1`, for which, in series [11], the logP stood at 1.82. On to `Cn1cccc(O)c1=O`, for which, in series [6], the logD is -0.4.

`Nc1cc(Cl)ccc1Cl` gave a logP in series [12] of 2.62. In [13], `CCCC(=O)n1c(=O)[nH]cc(F)c1=O` registered a logD of 0.67. In series [14], `CCC(Cl)(CC)C(=O)NC(N)=O` showed a logP of 1.4. In the case of `COc1ccccc1`, the logP in [15] stood at 2.15. In turn, `N#Cc1ccc([N+](=O)[O-])n1CCO` came in with a logP in [2] of 0.6. In series [16], `Cc1ccc2[nH]nnc2c1` came in with a logP of 1.89. Take `CCCCn1ccc(=O)c(O)c1`: in series [17], the logP was determined as 0.72.

For `Clc1ccc2[nH]nnc2c1`, the logP in series [16] came to 2.17. In series [5], `CCCC=CC(=O)O` gave a logD of 1.69. For the compound `c1ccc(Oc2ccccc2)cc1`, in series [18], the logP turned out to be 3.87. In [19], `C#CCN(C)C(C)Cc1ccc(F)cc1` (stereo not given) returned a logP of 3. In the case of `CN(C)c1nc(Cl)nc(N(C)C)n1`, the logD in series [20] is 2.31.

`ClC1=CC(Cl)C(Cl)C(Cl)C1` (stereo not given): the logP in series [21] came to 3.52. As to `O=Cc1ccc(Cl)c(Cl)c1`, the log partition coefficient (logP) in series [22] is 2.53. Compound `COc1cc(Cl)c(Cl)c(Cl)c1O` returned a logP in series [23] of 3.72.

As for `Oc1cc(Cl)ccc1Cl`, the logP in [11] was found to be 3.06.

In series [12], `Nc1cccc(Cl)c1Cl` had a logP of 2.51. `N#CSCSc1nc2ccccc2s1` registered a logP in series [24] of 3.12. For `Cc1ncc([N+](=O)[O-])n1CCS(C)(=O)=O`, in [25], the logP was -0.82. `CCS(=O)(=O)CCn1ccnc1[N+](=O)[O-]`: the logP in series [26] is -0.58. On to `CCCCC(C)=O`, for which, in [10], the logP stood at 1.39. In series [13], `CC(=O)n1c(=O)[nH]cc(F)c1=O` displayed a logD of -0.34. Regarding `COc1c(Cl)cc(Cl)c(Cl)c1Cl`, the logP in series [27] is 4.75.

In turn, `COP(=O)(OC)C(C)(O)P(=O)(OC)OC` yielded a logD in [28] of -1.39. With `CCn1ccc(=O)c(O)c1`, the logP in series [17] is -0.4. Consider `CNc1ccc(S(N)(=O)=O)cc1`, for which the logD in series [29] (pH 5.5) is 0.08. The compound `O=C(O)c1ccccc1[N+](=O)[O-]` came in with a logP in series [3] of 1.46. In the case of `CCC(C)CC`, the logP in series [30] stood at 2.8.

In turn, `Cc1ncc([N+](=O)[O-])n1CCS(=O)(=O)C(C)C` displayed a logP in [25] of 0.13. Consider `COP(=O)(OC)C(C)(OC(C)=O)P(=O)(OC)OC`, for which, in series [28], the logD is -1.05. In [19], `O=C1O[C@H]([C@@H](O)CO)C(O)=C1O` returned a logP of -1.84. In [31], `COc1cc(Cl)c(Cl)cc1OC` yielded a logP of 3.11.

On to `Cc1ccc(C)c(C=O)c1`, for which the logP in [22] is 1.91.

On to `COc1c(Cl)c(Cl)cc(Cl)c1Cl`, for which the log partition coefficient (logP) in series [27] was 4.68. As to `COc1c(Cl)cc(Cl)cc1Cl`, the logP in [31] amounted to 4.02. In [32], `O=C1CCCCCCN1` displayed a lipophilicity (logP) of 0.24.

Regarding `Cc1ssc(=S)c1CCC(=O)O`, the logP in series [33] stood at 2.04. In the case of `COCCCNc1nc(NC(C)C)nc(SC)n1`, the logP in series [34] turned out to be 2.96. For the compound `Sc1nc2ccccc2s1`, the logP in series [24] was found to be 2.41. For `NS(=O)(=O)c1ccc(Cl)c(Cl)c1`, in [29] (pH 2.0), the logD worked out at 1.44. In series [35], `Cc1ccc([N+](=O)[O-])cc1` yielded a logP of 2.4. As to `O=Cc1ssc(=S)c1CCC(=O)O`, the logP in [33] amounted to 2.73. In series [14], `CCC(CC)(OC)C(=O)NC(N)=O` registered a logP of 0.96. Consider `Brc1ccccc1Br`, for which, in series [36], the logP was 4.07.

`CCN1CCCC1=O` gave a logP in series [37] of -0.04. In series [20], `CN(CO)c1nc(N(C)CO)nc(N(C)CO)n1` had a logD of 0.4. Turning to `Clc1ccc(Br)cc1`, the logP in series [36] was found to be 3.83. In series [9], `c1ccc(-c2nccnn2)cc1` came in with a logP of 1.71. Consider `CS(=O)CCn1ccnc1[N+](=O)[O-]` (stereo not given), for which, in series [1], the logP was -1.22. As to `C1CCCCCCC1`, in series [30], the logP stood at 3.28. In the case of `CC1CCC(=O)N1C` (stereo not given), in series [37], the logP is -0.07. The compound `Oc1c(Cl)cc(Cl)c(Cl)c1Cl` came in with a logP in [23] of 4.3. Turning to `ClC1C(Cl)C(Cl)C(Cl)C(Cl)C1Cl` (stereo not given), the logP in [18] was determined as 3.67. In series [34], `CSc1nc(N=[N+]=[N-])nc(NC(C)C)n1` gave a logP of 3.27.

Take `O=[N+]([O-])c1ccccc1`: in [35], the logP was found to be 1.86. As for `COc1ccc(O)cc1`, in [8], the logP came out at 1.57. On to `COCC(=O)Cn1ccnc1[N+](=O)[O-]`, for which, in series [26], the logP is -0.26. In the case of `Cl[C@@H]1CCCC[C@@H]1Cl`, the logP in series [21] is 3.18. In the case of `Oc1ccc(Cl)cc1`, in series [15], the logP turned out to be 2.43. Take `CCCCOCC`: the logP was found to be 2.03. In [4], `CC1(C(N)=O)CCC=[N+]1[O-]` (stereo not given) displayed a logD of -1.8.
